US20240197603A1, “METHODS AND COMPOSITIONS FOR TREATING HYPERPIGMENTATION DISORDERS” (INSERM (INSTITUT NATIONAL DE LA SANTÉ ET DE LA RECHERCHE …, priority 2021, published 2024)

How the values were obtained:
B16F10 cells [1] = test: Cell viability / proliferation of B16F10 cells (CellTiter Aqueous One); assay type: cell-based, Mouse
Description: Mouse B16F10 and Human 501Mel melanoma cells were cultured in Dulbecco's modified Eagle's medium (DMEM) supplemented with 7% Fetal Bovine Serum and 1% Penicillin/Streptomycin. Human MNT1 melanoma cells were cultured as described (Yasumoto et al., 2004). Normal Human Melanocytes were isolated from foreskin obtained after phimosis surgery. Patient consent was not required because French laws consider tissue left over from postectomy as discarded material. Melanocytes were cultured in MCDB medium as described (Bonet et al., 2017). Cells were tested every 4 weeks for […] presence. […] Cell viability was evaluated using CellTiter Aqueous One Solution Cell Proliferation Assay (Promega, France) as recommended by the supplier.

[2] = test system: Phototype VI Reconstructed Human Pigmented Epidermis
Description: Phototype VI Reconstructed Human Pigmented Epidermis (Sterlab, France) were treated with BCH or vehicle for 7 days. 10 μm cryosections were used to visualize melanin using Fontana-Masson stain kit (Interchim, France). Images were taken with a Nikon microscope and a 20× lens. Melanin content was quantified after solubilization of epidermis in Solvable® solution (PerkinElmer, France), and melanin content was quantified as described above.

B16F10 cells [3] = test: Melanin content in B16F10 cells; assay type: cell-based, Mouse
Description: (§1) Mouse B16F10 and Human 501Mel melanoma cells were cultured in Dulbecco's modified Eagle's medium (DMEM) supplemented with 7% Fetal Bovine Serum and 1% Penicillin/Streptomycin. Human MNT1 melanoma cells were cultured as described (Yasumoto et al., 2004). Normal Human Melanocytes were isolated from foreskin obtained after phimosis surgery. Patient consent was not required because French laws consider tissue left over from postectomy as discarded material. Melanocytes were cultured in MCDB medium as described (Bonet et al., 2017). Cells were tested every 4 weeks for […] presence. […] Cells were transfected with 50 nM siRNAs to SLC7A5, MITF or control siRNAs (ON-TARGETplus, Dharmacon) using HiPerfect transfection reagent (Qiagen, France). When indicated, Forskolin (20 μM) and IBMX (100 μM) were added to induce pigmentation on B16F10 cells. 48 hours later, medium was removed, and cells were used for western blot, quantitative PCR, melanin content analyses, immunofluorescence or brightfield imaging. Cells were detached with 0.05% Trypsin-EDTA solution (Thermo Scientific, France) and solubilized in NaOH 0.5N. Optical density was measured at 405 nm using melanin standard as a reference. Melanin content was normalized to the protein content.

tyrosinase [4] = biological target: T1, tyrosinase (Mus musculus, UniProt P11344); test: Tyrosinase (L-DOPA) activity after treatment of B16F10 cells; assay type: cell-based; design: endogenous in cells; host or cells: B16F10 melanoma cells; conditions: B16F10 cells treated at 10 mM
T1 sequence (P11344 19-533): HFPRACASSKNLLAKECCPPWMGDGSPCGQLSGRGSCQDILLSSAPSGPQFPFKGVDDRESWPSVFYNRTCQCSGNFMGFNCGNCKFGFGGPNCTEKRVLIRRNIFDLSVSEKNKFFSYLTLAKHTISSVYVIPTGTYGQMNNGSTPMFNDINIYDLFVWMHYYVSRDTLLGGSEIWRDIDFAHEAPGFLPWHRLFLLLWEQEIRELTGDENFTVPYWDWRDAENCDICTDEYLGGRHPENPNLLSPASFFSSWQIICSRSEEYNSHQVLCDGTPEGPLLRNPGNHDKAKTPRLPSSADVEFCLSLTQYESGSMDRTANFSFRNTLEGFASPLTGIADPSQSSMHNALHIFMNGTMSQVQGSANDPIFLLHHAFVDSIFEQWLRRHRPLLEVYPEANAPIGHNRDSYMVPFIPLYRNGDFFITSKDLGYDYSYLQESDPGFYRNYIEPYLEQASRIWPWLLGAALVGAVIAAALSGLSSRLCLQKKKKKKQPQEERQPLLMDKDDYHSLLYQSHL
Description: (§2) Proteins were resuspended in 0.1M Sodium Phosphate pH 6.8, supplemented with 5 mM L-DOPA. After incubation for 1 hour at 37° C., optical density was read at 475 nm.

B16F10 cells [5] = test: Western blot of protein expression in B16F10 cells; assay type: cell-based, Mouse
Description: Proteins were analyzed by SDS-PAGE and transferred on PVDF membranes (Sigma, France). The antibodies used were as follow: beta-actin (ab8226), MITF (ab12039) and Tyrosinase (ab738) from Abcam, Rab27a (#69295) and HSP90 (#4874) from Cell Signaling Technologies, SLC7A5 (sc-374232) and TYRPI (sc-166857) from Santa Cruz. Signals were detected with horseradish peroxidase conjugated secondary antibodies using ECL detection kit and quantified by digital imaging (Fuji LAS4000).

tyrosinase [6] = biological target: T1, tyrosinase; test: DOPA oxidase assay, agent added directly in cell lysates; assay type: biochemical; design: when added directly in cell lysates during the DOPA oxidase assay; endogenous in cells; B16F10 by context); conditions: during the DOPA oxidase assay
Description: as §2

[7] = test system: MNT1 human melanoma cells; test: Melanin production in MNT1 human melanoma cells; assay type: cell-based
Description: as §1, with “were” for “were transfected with 50 nM siRNAs to SLC7A5, MITF or control siRNAs (ON-TARGETplus, Dharmacon) using HiPerfect transfection reagent (Qiagen, France). When indicated, Forskolin (20 μM) and IBMX (100 μM) were added to induce pigmentation on B16F10 cells. 48 hours later, medium was removed, and cells were used for western blot, quantitative PCR, melanin content analyses, immunofluorescence or brightfield imaging. Cells were”

[8] = test system: normal human melanocytes (NHM); test: Melanin production in normal human melanocytes; assay type: cell-based; conditions: pigmented normal human melanocytes
Description: as §1, with “were” for “were transfected with 50 nM siRNAs to SLC7A5, MITF or control siRNAs (ON-TARGETplus, Dharmacon) using HiPerfect transfection reagent (Qiagen, France). When indicated, Forskolin (20 μM) and IBMX (100 μM) were added to induce pigmentation on B16F10 cells. 48 hours later, medium was removed, and cells were used for western blot, quantitative PCR, melanin content analyses, immunofluorescence or brightfield imaging. Cells were”

| SMILES | cell proliferation (B16F10 cells [1]; JPH203 at 10 and 50 μM) | pigmentation of reconstructed epidermis (macroscopic, bright field images) ([2]; treated for 7 days) | inhibition of pigmentation (melanin content) (B16F10 cells [3]; B16F10 cells, JPH203 at 10 and 50 μM, FIG. 2) | cell proliferation (B16F10 cells [1]; doses of Kojic acid that inhibit melanogenesis) | inhibition at 1000 µM (B16F10 cells [3]; Mus musculus, B16-F10) [%] | tyrosinase activity after treatment of cells (tyrosinase [4]) | Slc7a5 expression (B16F10 cells [5]; Western blot, B16F10 cells) | Tyrosinase or Rab27a expression (B16F10 cells [5]; Western blot, B16F10 cells) | Tyrp1 expression (B16F10 cells [5]; Western blot, B16F10 cells) | conversion of LC3-I to LC3-II (autophagy) (B16F10 cells [5]; at 5 and 10 mM) | epidermis structure and keratinisation [2] | melanin content of reconstructed epidermis ([2]; treated for 7 days) | pigmented melanocytes in epidermis sections (Fontana Masson staining) ([2]; treated for 7 days) | tyrosinase activity, added directly in cell lysates (tyrosinase [6]) | melanin production [7] | inhibition of melanin production (B16F10 cells [3]; B16F10 cells, BCH at 5 mM) [%] | inhibition of melanin production (B16F10 cells [3]; B16F10 cells, BCH at 10 mM) [%] | melanin production [8] |
| --- | --- | --- | --- | --- | --- | --- | --- | --- | --- | --- | --- | --- | --- | --- | --- | --- | --- | --- |
| Nc1cc(COc2c(Cl)cc(C[C@H](N)C(=O)O)cc2Cl)c2oc(-c3ccccc3)nc2c1 [JPH203, O-[(5-amino-2-phenyl-7-benzoxazolyl)methyl]-3,5-dichloro-L-tyrosine] | did not inhibit cell proliferation | strong inhibition of pigmentation | efficiently inhibited pigmentation |  |  |  |  |  |  |  |  |  |  |  |  |  |  |  |
| O=c1cc(CO)occ1O [Kojic Acid] |  |  |  | did not affect cell proliferation | 60 |  |  |  |  |  |  |  |  |  |  |  |  |  |
| NC1(C(=O)O)CC2CCC1C2 (stereo not shown) [BCH] |  | inhibited pigmentation |  |  |  | did not | did not affect Slc7a5 expression | not affected consistently | dose-dependent increase | induced a conversion of LC3-I to LC3-II | without affecting epidermis structure or keratinisation | statistically significant decrease in melanin content | absence of pigmented melanocytes | does not inhibit tyrosinase activity | significantly decreased melanin production | 25 | 60 | significantly decreased melanin production |
